Measured values from US9067857B2, “Fluorine-containing aromatic compound and manufacturing method therefor” (Asahi Glass Company, Limited, priority 2012, dated 2015).

Test: Solubility test of compound in various solvents (20 mg in 10 g solvent, visually judged)
Format: physicochemical
Conditions: 20 mg sample in 10 g solvent at room temperature (0.2% by mass)
Procedure: <Solubility Test of Compound>
In order to investigate applicability of the compound (e) obtained in the above Example 4 to a wet process, a solubility test of the compound in various solvents was conducted. In addition, a solubility test of anthracene was also conducted as Reference Example 2.
Specifically, 20 mg of a sample was weighed and it was visually judged whether it dissolves in 10 g of a solvent at room temperature (0.2% by mass).
In Table 3, “Yes” represents “soluble” and “No” represents “insoluble”.

SMILES | Solubility in 1,2-Dichlorobenzene | Solubility in Chloroform | Solubility in Cyclohexane | Solubility in Hexane
FC(F)(F)C(F)(F)C(F)(F)C(F)(F)C(F)(F)C(F)(F)c1c2ccccc2c(C(F)(F)C(F)(F)C(F)(F)C(F)(F)C(F)(F)C(F)(F)F)c2ccccc12 [Compound (e), 9,10-bis(perfluorohexyl)anthracene] | Yes (“Yes” represents “soluble”) | Yes (“Yes” represents “soluble”) | Yes (“Yes” represents “soluble”) | Yes (“Yes” represents “soluble”)
c1ccc2cc3ccccc3cc2c1 [Anthracene, anthracene] | Yes (“Yes” represents “soluble”) | Yes (“Yes” represents “soluble”) | No (“No” represents “insoluble”) | No (“No” represents “insoluble”)
